Tests used:
[1] = biological target: Mitogen-activated protein kinase 12 (Homo sapiens) (UniProt P53778); conditions: Compound concentration 1000.0 nM
[2] = biological target: Mitogen-activated protein kinase kinase kinase 6 (Homo sapiens) (UniProt O95382); conditions: Compound concentration 1000.0 nM
[3] = biological target: Serine/threonine-protein kinase tousled-like 1 (Homo sapiens) (UniProt Q9UKI8); conditions: Compound concentration 1000.0 nM
[4] = biological target: RAC-gamma serine/threonine-protein kinase (Homo sapiens) (UniProt Q9Y243); conditions: Compound concentration 1000.0 nM
[5] = biological target: Phosphatidylinositol 4-phosphate 5-kinase type-1 alpha (Homo sapiens) (UniProt Q99755); conditions: Compound concentration 1000.0 nM
[6] = biological target: MAP kinase-interacting serine/threonine-protein kinase 2 (Homo sapiens) (UniProt Q9HBH9); conditions: Compound concentration 1000.0 nM
[7] = biological target: Adenosine receptor A2a (Homo sapiens) (UniProt P29274); experiment: A2A (h) Eurofins-Cerep binding assay; design: ligand concentration 6 nM; conditions: filed as agonist, Compound concentration 10.0 uM
[8] = biological target: TGF-beta receptor type-1 (Homo sapiens) (UniProt P36897); conditions: Compound concentration 1000.0 nM
[9] = biological target: Tyrosine-protein kinase Fer (Homo sapiens) (UniProt P16591); conditions: Compound concentration 1000.0 nM
[10] = biological target: Serine/threonine-protein kinase Nek3 (Homo sapiens) (UniProt P51956); conditions: Compound concentration 1000.0 nM
[11] = biological target: Rhodopsin kinase GRK7 (Homo sapiens) (UniProt Q8WTQ7); conditions: Compound concentration 1000.0 nM
[12] = biological target: Substance-K receptor (Homo sapiens) (UniProt P21452); experiment: NK2 (h) Eurofins-Cerep binding assay; design: ligand concentration 0.1 nM; conditions: filed as agonist, Compound concentration 10.0 uM
[13] = biological target: Cyclin-dependent kinase-like 3 (Homo sapiens) (UniProt Q8IVW4); conditions: Compound concentration 1000.0 nM
[14] = biological target: Vasoactive intestinal polypeptide receptor 1 (Homo sapiens) (UniProt P32241); experiment: VPAC1 (VIP1) (h) Eurofins-Cerep binding assay; conditions: filed as agonist, Compound concentration 10.0 uM
[15] = biological target: Androgen receptor (Homo sapiens) (UniProt P10275); experiment: AR (h) Eurofins-Cerep binding assay; design: ligand concentration 1 nM; conditions: filed as agonist, Compound concentration 10.0 uM
[16] = biological target: NT-3 growth factor receptor (Homo sapiens) (UniProt Q16288); conditions: Compound concentration 1000.0 nM
[17] = biological target: Ephrin type-A receptor 8 (Homo sapiens) (UniProt P29322); conditions: Compound concentration 1000.0 nM
[18] = biological target: Sigma intracellular receptor 2 (Homo sapiens, UniProt Q5BJF2); experiment: GPCRScan assay: inhibition of Sigma 2; design: radioligand conc. used [nm] 5.0, parental cells HEKT
[19] = biological target: Dual specificity mitogen-activated protein kinase kinase 6 (Homo sapiens) (UniProt P52564); conditions: Compound concentration 1000.0 nM
[20] = biological target: 3-phosphoinositide-dependent protein kinase 1 (Homo sapiens) (UniProt O15530); conditions: Compound concentration 1000.0 nM
[21] = system: Epidermal growth factor receptor (Homo sapiens), P00533 [T790M]; conditions: Compound concentration 1000.0 nM
[22] = biological target: 5-hydroxytryptamine receptor 2A (Homo sapiens) (UniProt P28223); experiment: 5-HT2A (h) Eurofins-Cerep binding assay; design: ligand concentration 0.5 nM; conditions: filed as antagonist, Compound concentration 10.0 uM
[23] = biological target: Phosphorylase b kinase gamma catalytic chain, skeletal muscle/heart isoform (Homo sapiens) (UniProt Q16816); conditions: Compound concentration 1000.0 nM
[24] = biological target: Cyclin-dependent kinase 4 (Homo sapiens) (UniProt P11802); conditions: Compound concentration 1000.0 nM
[25] = biological target: Tyrosine-protein kinase receptor UFO (Homo sapiens) (UniProt P30530); conditions: Compound concentration 1000.0 nM
[26] = biological target: 5'-AMP-activated protein kinase catalytic subunit alpha-1 (Homo sapiens) (UniProt Q13131); conditions: Compound concentration 1000.0 nM
[27] = system: Epidermal growth factor receptor (Homo sapiens), P00533 [L861Q]; conditions: Compound concentration 1000.0 nM
[28] = biological target: Histamine H4 receptor (Homo sapiens) (UniProt Q9H3N8); conditions: Compound concentration 10.0 uM
[29] = biological target: Serine/threonine-protein kinase MRCK gamma (Homo sapiens) (UniProt Q6DT37); conditions: Compound concentration 1000.0 nM
[30] = biological target: Adenosine receptor A2b (Homo sapiens) (UniProt P29275); experiment: A2B (h) Eurofins-Cerep binding assay; design: ligand concentration 5 nM; conditions: filed as antagonist, Compound concentration 10.0 uM
[31] = biological target: Serine/threonine-protein kinase WNK3 (Homo sapiens) (UniProt Q9BYP7); conditions: Compound concentration 1000.0 nM
[32] = system: Mast/stem cell growth factor receptor Kit (Homo sapiens), P10721 [D816V]; conditions: Compound concentration 1000.0 nM
[33] = biological target: Serine/threonine-protein kinase 33 (Homo sapiens) (UniProt Q9BYT3); conditions: Compound concentration 1000.0 nM
[34] = biological target: Serine/threonine-protein kinase ULK3 (Homo sapiens) (UniProt Q6PHR2); conditions: Compound concentration 1000.0 nM
[35] = biological target: Serine/threonine-protein kinase TAO1 (Homo sapiens) (UniProt Q7L7X3); conditions: Compound concentration 1000.0 nM
[36] = biological target: Phosphatidylinositol 4,5-bisphosphate 3-kinase catalytic subunit beta isoform (Homo sapiens) (UniProt P42338); conditions: Compound concentration 1000.0 nM
[37] = biological target: Mitogen-activated protein kinase kinase kinase 20 (Homo sapiens) (UniProt Q9NYL2); conditions: Compound concentration 1000.0 nM
[38] = biological target: Mitogen-activated protein kinase 1 (Homo sapiens) (UniProt P28482); conditions: Compound concentration 1000.0 nM
[39] = biological target: Serine/threonine-protein kinase pim-2 (Homo sapiens) (UniProt Q9P1W9); conditions: Compound concentration 1000.0 nM
[40] = system: Epidermal growth factor receptor (Homo sapiens), P00533 [G719C]; conditions: Compound concentration 1000.0 nM
[41] = biological target: P2X receptor (Rattus norvegicus) (UniProt P51579+P49653+P51578+Q64663+P47824+P51577+P49654); experiment: P2X Eurofins-Cerep binding assay; assay type: protein assay; design: ligand concentration 3 nM; conditions: filed as agonist, Compound concentration 10.0 uM
[42] = system: Tyrosine-protein kinase ABL1 (Homo sapiens), P00519 [E255K]; conditions: Compound concentration 1000.0 nM
[43] = biological target: Muscarinic acetylcholine receptor M3 (Homo sapiens) (UniProt P20309); experiment: M3 (h) Eurofins-Cerep binding assay; design: ligand concentration 0.2 nM; conditions: filed as antagonist, Compound concentration 10.0 uM
[44] = biological target: Activated CDC42 kinase 1 (Homo sapiens) (UniProt Q07912); conditions: Compound concentration 1000.0 nM
[45] = biological target: Wee1-like protein kinase (Homo sapiens) (UniProt P30291); conditions: Compound concentration 1000.0 nM

Adenosine receptor A2a (Homo sapiens), sequence (P29274 whole entry): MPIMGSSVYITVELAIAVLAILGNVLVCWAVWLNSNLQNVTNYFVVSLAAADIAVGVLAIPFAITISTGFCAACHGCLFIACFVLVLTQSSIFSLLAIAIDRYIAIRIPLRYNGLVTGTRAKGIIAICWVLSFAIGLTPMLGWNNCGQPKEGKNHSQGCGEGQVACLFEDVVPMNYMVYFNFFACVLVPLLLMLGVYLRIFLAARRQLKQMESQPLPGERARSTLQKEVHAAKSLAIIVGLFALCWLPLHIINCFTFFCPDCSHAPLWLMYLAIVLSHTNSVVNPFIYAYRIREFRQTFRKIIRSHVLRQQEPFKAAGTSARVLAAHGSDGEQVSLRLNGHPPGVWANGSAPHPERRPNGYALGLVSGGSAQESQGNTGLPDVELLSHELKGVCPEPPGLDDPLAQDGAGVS
Substance-K receptor (Homo sapiens), sequence (P21452 whole entry): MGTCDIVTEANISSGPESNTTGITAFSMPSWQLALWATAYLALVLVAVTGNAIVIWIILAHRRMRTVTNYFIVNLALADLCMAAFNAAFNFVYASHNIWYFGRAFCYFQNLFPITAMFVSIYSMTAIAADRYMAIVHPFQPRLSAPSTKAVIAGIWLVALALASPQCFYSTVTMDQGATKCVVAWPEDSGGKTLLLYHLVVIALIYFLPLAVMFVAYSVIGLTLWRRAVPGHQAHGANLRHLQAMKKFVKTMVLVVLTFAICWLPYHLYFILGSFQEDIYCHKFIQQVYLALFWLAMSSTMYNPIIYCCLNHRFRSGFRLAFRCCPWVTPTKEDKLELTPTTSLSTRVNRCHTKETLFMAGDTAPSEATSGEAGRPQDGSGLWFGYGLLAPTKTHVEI
Serine/threonine-protein kinase pim-2 (Homo sapiens), sequence (Q9P1W9 whole entry, looked up): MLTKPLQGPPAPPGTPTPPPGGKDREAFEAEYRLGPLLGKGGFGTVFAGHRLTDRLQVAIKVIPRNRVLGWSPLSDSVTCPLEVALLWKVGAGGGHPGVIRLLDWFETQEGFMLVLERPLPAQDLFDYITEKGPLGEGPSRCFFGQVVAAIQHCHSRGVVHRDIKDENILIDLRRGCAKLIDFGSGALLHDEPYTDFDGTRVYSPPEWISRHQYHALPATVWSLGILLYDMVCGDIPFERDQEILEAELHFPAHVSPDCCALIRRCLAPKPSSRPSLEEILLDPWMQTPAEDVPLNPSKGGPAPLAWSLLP
5-hydroxytryptamine receptor 2A (Homo sapiens), sequence (P28223 whole entry, canonical isoform): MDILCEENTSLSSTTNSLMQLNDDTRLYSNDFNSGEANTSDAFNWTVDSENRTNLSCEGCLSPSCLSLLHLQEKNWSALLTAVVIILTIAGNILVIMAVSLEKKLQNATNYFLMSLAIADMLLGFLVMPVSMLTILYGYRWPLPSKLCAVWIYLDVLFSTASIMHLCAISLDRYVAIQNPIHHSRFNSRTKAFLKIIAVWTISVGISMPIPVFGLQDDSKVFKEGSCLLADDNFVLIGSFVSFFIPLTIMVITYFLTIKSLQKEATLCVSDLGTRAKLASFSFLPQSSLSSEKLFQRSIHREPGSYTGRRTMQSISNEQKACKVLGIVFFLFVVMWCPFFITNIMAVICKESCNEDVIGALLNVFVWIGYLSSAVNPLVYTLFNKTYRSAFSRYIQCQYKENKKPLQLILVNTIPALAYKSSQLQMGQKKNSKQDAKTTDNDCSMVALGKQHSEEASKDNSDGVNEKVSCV
Muscarinic acetylcholine receptor M3 (Homo sapiens), sequence (P20309 whole entry, looked up): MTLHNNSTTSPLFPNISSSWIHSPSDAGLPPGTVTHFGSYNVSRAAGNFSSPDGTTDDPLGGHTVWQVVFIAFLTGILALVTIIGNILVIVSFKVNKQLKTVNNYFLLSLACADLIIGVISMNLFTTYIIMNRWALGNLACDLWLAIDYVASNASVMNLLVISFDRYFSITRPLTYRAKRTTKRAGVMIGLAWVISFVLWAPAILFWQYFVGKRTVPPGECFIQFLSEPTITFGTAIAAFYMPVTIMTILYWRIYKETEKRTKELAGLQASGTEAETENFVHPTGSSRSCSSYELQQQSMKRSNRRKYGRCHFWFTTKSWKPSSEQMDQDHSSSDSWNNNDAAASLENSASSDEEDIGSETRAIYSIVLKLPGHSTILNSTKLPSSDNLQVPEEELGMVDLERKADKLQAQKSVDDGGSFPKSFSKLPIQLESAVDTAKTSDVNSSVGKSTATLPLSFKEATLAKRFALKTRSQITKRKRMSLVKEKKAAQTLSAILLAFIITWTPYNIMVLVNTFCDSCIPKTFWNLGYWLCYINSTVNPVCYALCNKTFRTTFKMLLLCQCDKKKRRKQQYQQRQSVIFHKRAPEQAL
RAC-gamma serine/threonine-protein kinase (Homo sapiens), sequence (Q9Y243 whole entry): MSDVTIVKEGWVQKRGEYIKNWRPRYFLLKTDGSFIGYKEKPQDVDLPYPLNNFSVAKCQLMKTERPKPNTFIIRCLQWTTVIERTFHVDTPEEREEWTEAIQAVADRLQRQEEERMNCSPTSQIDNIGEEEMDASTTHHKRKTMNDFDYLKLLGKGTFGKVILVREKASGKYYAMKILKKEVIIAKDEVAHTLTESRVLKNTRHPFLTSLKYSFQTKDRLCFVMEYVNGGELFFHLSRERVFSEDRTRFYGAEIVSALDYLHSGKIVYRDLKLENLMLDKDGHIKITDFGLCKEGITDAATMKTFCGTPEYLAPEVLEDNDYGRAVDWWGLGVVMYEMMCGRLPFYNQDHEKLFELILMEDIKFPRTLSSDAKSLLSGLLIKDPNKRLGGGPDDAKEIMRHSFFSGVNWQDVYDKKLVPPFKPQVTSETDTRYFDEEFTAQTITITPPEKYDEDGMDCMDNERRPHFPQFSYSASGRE
3-phosphoinositide-dependent protein kinase 1 (Homo sapiens), sequence (O15530 whole entry): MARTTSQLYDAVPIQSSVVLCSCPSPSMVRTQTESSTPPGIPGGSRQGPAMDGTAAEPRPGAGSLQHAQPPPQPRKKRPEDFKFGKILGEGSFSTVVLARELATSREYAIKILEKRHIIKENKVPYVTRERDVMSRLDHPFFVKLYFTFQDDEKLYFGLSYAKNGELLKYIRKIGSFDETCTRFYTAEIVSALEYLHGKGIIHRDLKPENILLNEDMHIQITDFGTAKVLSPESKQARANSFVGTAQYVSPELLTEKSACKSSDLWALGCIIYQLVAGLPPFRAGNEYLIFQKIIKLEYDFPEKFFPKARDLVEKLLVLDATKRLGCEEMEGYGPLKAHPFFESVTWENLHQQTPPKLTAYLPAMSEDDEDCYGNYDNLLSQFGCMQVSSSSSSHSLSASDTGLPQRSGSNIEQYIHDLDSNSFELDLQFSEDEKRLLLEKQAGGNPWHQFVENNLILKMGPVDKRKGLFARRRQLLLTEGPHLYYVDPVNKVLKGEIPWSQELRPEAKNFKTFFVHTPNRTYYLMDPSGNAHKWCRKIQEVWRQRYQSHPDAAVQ
Serine/threonine-protein kinase MRCK gamma (Homo sapiens), sequence (Q6DT37 whole entry): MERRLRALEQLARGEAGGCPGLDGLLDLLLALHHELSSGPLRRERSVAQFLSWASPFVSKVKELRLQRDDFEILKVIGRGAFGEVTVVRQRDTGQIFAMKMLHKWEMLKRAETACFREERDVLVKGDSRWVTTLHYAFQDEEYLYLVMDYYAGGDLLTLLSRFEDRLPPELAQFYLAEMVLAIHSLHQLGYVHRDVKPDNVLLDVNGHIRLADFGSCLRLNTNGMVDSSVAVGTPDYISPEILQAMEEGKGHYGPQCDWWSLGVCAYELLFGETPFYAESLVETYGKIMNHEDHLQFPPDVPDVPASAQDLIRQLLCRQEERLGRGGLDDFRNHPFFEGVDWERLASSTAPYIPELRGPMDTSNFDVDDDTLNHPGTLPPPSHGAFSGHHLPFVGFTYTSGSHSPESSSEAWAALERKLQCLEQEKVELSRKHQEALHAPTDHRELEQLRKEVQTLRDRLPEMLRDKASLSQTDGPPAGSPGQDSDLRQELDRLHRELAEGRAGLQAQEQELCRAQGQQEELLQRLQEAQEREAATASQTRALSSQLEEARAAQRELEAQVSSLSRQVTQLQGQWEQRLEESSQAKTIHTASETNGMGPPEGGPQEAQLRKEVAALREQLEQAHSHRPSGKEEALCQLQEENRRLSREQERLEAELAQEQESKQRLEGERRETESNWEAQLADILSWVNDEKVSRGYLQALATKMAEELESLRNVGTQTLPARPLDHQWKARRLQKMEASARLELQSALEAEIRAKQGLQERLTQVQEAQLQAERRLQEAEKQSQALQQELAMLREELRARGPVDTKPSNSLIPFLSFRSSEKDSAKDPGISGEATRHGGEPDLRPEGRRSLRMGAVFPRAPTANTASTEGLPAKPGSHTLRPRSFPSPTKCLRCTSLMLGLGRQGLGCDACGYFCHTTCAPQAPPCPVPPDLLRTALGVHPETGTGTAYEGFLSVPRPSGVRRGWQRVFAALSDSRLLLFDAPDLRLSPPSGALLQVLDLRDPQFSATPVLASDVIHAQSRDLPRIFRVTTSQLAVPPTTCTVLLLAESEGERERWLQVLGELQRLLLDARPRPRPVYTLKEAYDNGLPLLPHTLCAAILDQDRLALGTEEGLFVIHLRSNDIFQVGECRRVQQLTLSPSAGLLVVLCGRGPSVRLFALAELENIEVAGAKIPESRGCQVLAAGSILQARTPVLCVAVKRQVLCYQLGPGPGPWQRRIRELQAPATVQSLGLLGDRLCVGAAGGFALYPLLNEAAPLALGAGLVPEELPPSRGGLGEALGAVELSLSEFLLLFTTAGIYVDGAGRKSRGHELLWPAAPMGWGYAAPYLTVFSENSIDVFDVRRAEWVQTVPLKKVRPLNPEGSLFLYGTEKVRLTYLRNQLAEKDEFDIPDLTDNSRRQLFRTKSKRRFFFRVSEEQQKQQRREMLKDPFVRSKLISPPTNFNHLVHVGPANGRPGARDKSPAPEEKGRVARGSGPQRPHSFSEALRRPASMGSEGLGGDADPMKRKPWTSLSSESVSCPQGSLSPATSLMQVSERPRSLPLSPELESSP
Sigma intracellular receptor 2, sequence (Q5BJF2 whole entry): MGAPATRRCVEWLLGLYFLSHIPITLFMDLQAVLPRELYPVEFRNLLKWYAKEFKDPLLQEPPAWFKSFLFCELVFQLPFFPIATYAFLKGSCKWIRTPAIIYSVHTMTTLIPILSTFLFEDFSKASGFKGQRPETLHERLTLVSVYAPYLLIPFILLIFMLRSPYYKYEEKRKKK

SMILES: COc1ccc2c(c1)O[C@H](c1ccc(OC)c(OC)c1)C[C@@H]2NC(=O)C1(c2ccc3c(c2)OC(F)(F)O3)CC1 [A-1596584]
- residual activity [1]: 98%
- residual activity [2]: 81%
- residual activity [3]: 100%
- residual activity [4]: 100%
- residual activity [5]: 84%
- residual activity [6]: 100%
- % Inhibition of Control Specific Binding (Mean n=2) [7]: 7.8%
- residual activity [8]: 100%
- residual activity [9]: 100%
- residual activity [10]: 90%
- residual activity [11]: 100%
- % Inhibition of Control Specific Binding (Mean n=2) [12]: 11.5%
- residual activity [13]: 97%
- % Inhibition of Control Specific Binding (Mean n=2) [14]: 5%
- % Inhibition of Control Specific Binding (Mean n=2) [15]: -3.6%
- residual activity [16]: 92%
- residual activity [17]: 100%
- Ki [18]: 584 nM
- residual activity [19]: 100%
- residual activity [20]: 100%
- residual activity [21]: 87%
- % Inhibition of Control Specific Binding (Mean n=2) [22]: -3.7%
- residual activity [23]: 100%
- residual activity [24]: 96%
- residual activity [25]: 100%
- residual activity [26]: 100%
- residual activity [27]: 100%
- inhibition [28]: 6.21%
- residual activity [29]: 89%
- % Inhibition of Control Specific Binding (Mean n=2) [30]: 3.6%
- residual activity [31]: 100%
- residual activity [32]: 99%
- residual activity [33]: 61%
- residual activity [34]: 90%
- residual activity [35]: 100%
- residual activity [36]: 100%
- residual activity [37]: 97%
- residual activity [38]: 99%
- residual activity [39]: 100%
- residual activity [40]: 100%
- % Inhibition of Control Specific Binding (Mean n=2) [41]: 4.8%
- residual activity [42]: 90%
- % Inhibition of Control Specific Binding (Mean n=2) [43]: -12.8%
- residual activity [44]: 99%
- residual activity [45]: 100%

SMILES: COc1ccc2c(c1)O[C@@H](c1ccc(OC)c(OC)c1)C[C@H]2NC(=O)C1(c2ccc3c(c2)OC(F)(F)O3)CC1 [A-1596586]
- residual activity [1]: 100%
- residual activity [2]: 81%
- residual activity [3]: 84%
- residual activity [4]: 100%
- residual activity [5]: 72%
- residual activity [6]: 93%
- % Inhibition of Control Specific Binding (Mean n=2) [7]: 11.2%
- residual activity [8]: 100%
- residual activity [9]: 100%
- residual activity [10]: 76%
- residual activity [11]: 100%
- % Inhibition of Control Specific Binding (Mean n=2) [12]: 11.5%
- residual activity [13]: 94%
- % Inhibition of Control Specific Binding (Mean n=2) [14]: 10.4%
- % Inhibition of Control Specific Binding (Mean n=2) [15]: 7.1%
- residual activity [16]: 83%
- residual activity [17]: 82%
- Ki [18]: 1190 nM
- residual activity [19]: 100%
- residual activity [20]: 100%
- residual activity [21]: 82%
- % Inhibition of Control Specific Binding (Mean n=2) [22]: -7.4%
- residual activity [23]: 100%
- residual activity [24]: 91%
- residual activity [25]: 100%
- residual activity [26]: 80%
- residual activity [27]: 100%
- inhibition [28]: -2.97%
- residual activity [29]: 89%
- % Inhibition of Control Specific Binding (Mean n=2) [30]: 3.7%
- residual activity [31]: 100%
- residual activity [32]: 92%
- residual activity [33]: 68%
- residual activity [34]: 85%
- residual activity [35]: 93%
- residual activity [36]: 89%
- residual activity [37]: 97%
- residual activity [38]: 100%
- residual activity [39]: 100%
- residual activity [40]: 96%
- % Inhibition of Control Specific Binding (Mean n=2) [41]: -21.7%
- residual activity [42]: 80%
- % Inhibition of Control Specific Binding (Mean n=2) [43]: -3.3%
- residual activity [44]: 100%
- residual activity [45]: 99%
